Measurements from publication PMC4450297, “Screening Active Compounds from Garcinia Species Native to China Reveals Novel Compounds Targeting the STAT/JAK Signaling Pathway” (BioMed Research International, 2015).
Where two headings read alike, the source gives them in different places.

Key:
Assay in all cases: Cell panel screen (CellTiter-Glo)
Type in all cases: cell-based, human
[1] = test system: HCC1569; details: Homo sapiens, read-out: Percent Inhibition
In short: (§1)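 Steps: seed cells, culture overnight at 37°C; add compound diluted in medium from DMSO stock to 20 μM final; incubate 72 h; add detection reagent for 10 min; read luminescence; compute % inhibition versus vehicle controls.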

[2] = test system: HCC1599; details: Homo sapiens, read-out: Percent Inhibition
In short: as §1

[3] = test system: T98G; details: Homo sapiens, read-out: Percent Inhibition
In short: as §1

[4] = test system: NCI-H2405; details: Homo sapiens, read-out: Percent Inhibition
In short: as §1

[5] = test system: HEC-1-A; details: Homo sapiens, read-out: Percent Inhibition
In short: as §1

[6] = test system: ChaGo-K-1; details: Homo sapiens, read-out: Percent Inhibition
In short: as §1

[7] = test system: NCI-H1623; details: Homo sapiens, read-out: Percent Inhibition
In short: as §1

[8] = test system: Colo 205; details: Homo sapiens, read-out: Percent Inhibition
In short: as §1

[9] = test system: NCI-H2347; details: Homo sapiens, read-out: Percent Inhibition
In short: as §1

[10] = test system: BT-474; details: Homo sapiens, read-out: Percent Inhibition
In short: as §1

[11] = test system: HT-1197; details: Homo sapiens, read-out: Percent Inhibition
In short: as §1

[12] = test system: BT-549; details: Homo sapiens, read-out: Percent Inhibition
In short: as §1

[13] = test system: T47D; details: Homo sapiens, read-out: Percent Inhibition
In short: as §1

[14] = test system: ZR-75-30; details: Homo sapiens, read-out: Percent Inhibition
In short: as §1

[15] = test system: TCCSUP; details: Homo sapiens, TCC-SUP, read-out: Percent Inhibition
In short: as §1

[16] = test system: MSTO-211-H; details: Homo sapiens, read-out: Percent Inhibition
In short: as §1

[17] = test system: C3A; details: Homo sapiens, read-out: Percent Inhibition
In short: as §1

[18] = test system: NCI-H28; details: Homo sapiens, read-out: Percent Inhibition
In short: as §1

[19] = test system: J82; details: Homo sapiens, read-out: Percent Inhibition
In short: as §1

[20] = test system: HGC-27; details: Homo sapiens, read-out: Percent Inhibition
In short: as §1

[21] = test system: NCI-H1694; details: Homo sapiens, read-out: Percent Inhibition
In short: as §1

[22] = test system: HCC1395; details: Homo sapiens, read-out: Percent Inhibition
In short: as §1

[23] = test system: C8166; details: Homo sapiens, read-out: Percent Inhibition
In short: as §1

[24] = test system: CW-2; details: Homo sapiens, read-out: Percent Inhibition
In short: as §1

[25] = test system: RL95; details: Homo sapiens, read-out: Percent Inhibition
In short: as §1

[26] = test system: SW13; details: Homo sapiens, read-out: Percent Inhibition
In short: as §1

[27] = test system: Bel-7402; details: Homo sapiens, read-out: Percent Inhibition
In short: as §1

[28] = test system: M059J; details: Homo sapiens, read-out: Percent Inhibition
In short: as §1

Compound: CC(C)=CCC/C(C)=C/Cc1c(O)c(CC=C(C)C)c2c(c1O)C(=O)C1=C[C@@H]3C[C@H]4C(C)(C)O[C@@](C/C=C(\C)C=O)(C3=O)[C@@]14O2 [GB49]
- inhibition at 20 µM ([1]; HCC1569 (Breast), 20 micromolar, 72 hrs): 99%
- inhibition at 20 µM ([2]; HCC1599 (Breast), 20 micromolar, 72 hrs): 99%
- inhibition at 20 µM ([3]; T98G (Brain), 20 micromolar, 72 hrs): 99%
- inhibition at 20 µM ([4]; NCI-H2405 (Lung), 20 micromolar, 72 hrs): 99%
- inhibition at 20 µM ([5]; HEC-1-A (Uterus), 20 micromolar, 72 hrs): 99%
- inhibition at 20 µM ([6]; ChaGo-K-1 (Lung), 20 micromolar, 72 hrs): 99%
- inhibition at 20 µM ([7]; NCI-H1623 (Lung), 20 micromolar, 72 hrs): 99%
- inhibition at 20 µM ([8]; Colo 205, 20 micromolar, 72 hrs): 100%
- inhibition at 20 µM ([9]; NCI-H2347 (Lung), 20 micromolar, 72 hrs): 98%
- inhibition at 20 µM ([10]; BT-474 (Breast), 20 micromolar, 72 hrs): 99%
- inhibition at 20 µM ([11]; HT1197, HT-1197 (Urinary bladder), 20 micromolar, 72 hrs): 96%
- inhibition at 20 µM ([12]; BT-549 (Breast), 20 micromolar, 72 hrs): 99%
- inhibition at 20 µM ([13]; T47D (Breast), 20 micromolar, 72 hrs): 99%
- inhibition at 20 µM ([14]; ZR-75-30 (Breast), 20 micromolar, 72 hrs): 100%
- inhibition at 20 µM ([15]; TCCSUP (Urinary bladder), 20 micromolar, 72 hrs): 99%
- inhibition at 20 µM ([16]; MSTO-211-H (Lung), 20 micromolar, 72 hrs): 99%
- inhibition at 20 µM ([17]; C3A (Liver), 20 micromolar, 72 hrs): 97%
- inhibition at 20 µM ([18]; NCI-H28 (Lung), 20 micromolar, 72 hrs): 97%
- inhibition at 20 µM ([19]; J82 (Urinary bladder), 20 micromolar, 72 hrs): 98%
- inhibition at 20 µM ([20]; HGC-27 (Stomach), 20 micromolar, 72 hrs): 98%
- inhibition at 20 µM ([21]; NCI-H1694 (Lung), 20 micromolar, 72 hrs): 100%
- inhibition at 20 µM ([22]; HCC1395 (Breast), 20 micromolar, 72 hrs): 99%
- inhibition at 20 µM ([23]; C8166 (Leukemia), 20 micromolar, 72 hrs): 99%
- inhibition at 20 µM ([24]; CW-2 (Colon), 20 micromolar, 72 hrs): 99%
- inhibition at 20 µM ([25]; RL95 (Uterus), 20 micromolar, 72 hrs): 99%
- inhibition at 20 µM ([26]; SW13 (Adrenal gland), 20 micromolar, 72 hrs): 99%
- inhibition at 20 µM ([27]; Bel-7402 (Liver), 20 micromolar, 72 hrs): 98%
- inhibition at 20 µM ([28]; M059J (Brain), 20 micromolar, 72 hrs): 99%

Compound: CC(C)=CCC/C(C)=C/Cc1c(O)c(CC=C(C)C)c2c(c1O)C(=O)C1=C[C@@H]3C[C@H]4C(C)(C)O[C@@](CC=C(C)C)(C3=O)[C@@]14O2 [GB32]
- inhibition at 20 µM ([1]; HCC1569, 72 h): 99%
- inhibition at 20 µM ([2]; HCC1599, 72 h): 100%
- inhibition at 20 µM ([3]; T98G, 72 h): 99%
- inhibition at 20 µM ([4]; NCI-H2405, 72 h): 99%
- inhibition at 20 µM ([5]; HEC-1-A, 72 h): 99%
- inhibition at 20 µM ([6]; ChaGo-K-1, 72 h): 99%
- inhibition at 20 µM ([7]; NCI-H1623, 72 h): 99%
- inhibition at 20 µM ([8]; COLO 205, 72 h): 99%
- inhibition at 20 µM ([9]; NCI-H2347, 72 h): 98%
- inhibition at 20 µM ([10]; BT-474, 72 h): 99%
- inhibition at 20 µM ([11]; HT1197, 72 h): 99%
- inhibition at 20 µM ([12]; BT-549, 72 h): 99%
- inhibition at 20 µM ([13]; T47D, 72 h): 99%
- inhibition at 20 µM ([14]; ZR-75-30, 72 h): 99%
- inhibition at 20 µM ([15]; 72 h): 99%
- inhibition at 20 µM ([16]; MSTO-211H, 72 h): 99%
- inhibition at 20 µM ([17]; C3A, 72 h): 99%
- inhibition at 20 µM ([18]; NCI-H28, 72 h): 99%
- inhibition at 20 µM ([19]; J82, 72 h): 99%
- inhibition at 20 µM ([20]; HGC-27, 72 h): 99%
- inhibition at 20 µM ([21]; NCI-H1694, 72 h): 100%
- inhibition at 20 µM ([22]; HCC1395, 72 h): 99%
- inhibition at 20 µM ([23]; C8166, 72 h): 99%
- inhibition at 20 µM ([24]; CW-2, 72 h): 99%
- inhibition at 20 µM ([25]; 72 h): 99%
- inhibition at 20 µM ([26]; SW13, 72 h): 99%
- inhibition at 20 µM ([27]; Bel-7402, 72 h): 99%
- inhibition at 20 µM ([28]; M059J, 72 h): 99%
